Entries after “also recorded” stand apart in the source; their conditions may differ. Read-outs that look alike come from different tables or passages of the source.

The test system of one test is NCl 60 cell panel. Nature of the test: NCI 60 cell line panel antitumour activity (whole panel). It is filed as cell-based, human. As to conditions: for GI50: MGMID line of the panel, read-out: anti-tumour activity GI50, MGMID; for antitumour activity in the NCl 60 cell line panel (in words): wide range of human tumour cell lines. From the text:
(§1) Examples 6 and 7 make use of the NCl 60 cell panel. This is an in vitro cell line screening project providing direct support to the National Cancer Institute's USA Developmental Therapeutic Programme for anti cancer discovery. The methodolgy for the cell line's operation is described by Boyd et al in Drug Development Research 1995, 34, 91-109.

Another test relates to HCT-116. Put plainly: NCI 60 cell panel growth inhibition. It is filed as cell-based, human. As to conditions: COLON, read-out: anti-tumour activity GI50.
From the text: as §1

A further test concerns K562. Nature of the test: NCI 60 cell panel growth inhibition. It is filed as cell-based, human. The settings on record: Leukemia, read-out: anti-tumour activity GI50.
From the text: as §1

The next test concerns RXF 393. Put plainly: NCI 60 cell panel growth inhibition. It is filed as cell-based, human. The settings on record: RENAL, read-out: anti-tumour activity GI50.
From the text: as §1

A further test concerns SF-268. Nature of the test: NCI 60 cell panel growth inhibition. It is filed as cell-based, human. As to conditions: CNS, read-out: anti-tumour activity GI50.
From the text: as §1

In another test the test system is SF-539. Nature of the test: NCI 60 cell panel growth inhibition. As to conditions: CNS, read-out: anti-tumour activity GI50. It is filed as cell-based, human.
From the text: as §1

The next test deals with SW-620. Nature of the test: NCI 60 cell panel growth inhibition. It is filed as cell-based, human. As to conditions: COLON, read-out: anti-tumour activity GI50.
From the text: as §1

The subject of another test is TK10. Nature of the test: NCI 60 cell panel growth inhibition. It is filed as cell-based, human. As to conditions: read-out: anti-tumour activity GI50.
From the text: as §1

In the next test the test system is HCT-15. Put plainly: NCI 60 cell panel growth inhibition. It is filed as cell-based. As to conditions: Homo sapiens, COLON, read-out: anti-tumour activity GI50.
From the text: as §1

The subject of a further test is SNB-75. Nature of the test: NCI 60 cell panel growth inhibition. It is filed as cell-based. As to conditions: Homo sapiens, CNS, read-out: anti-tumour activity GI50.
From the text: as §1

The subject of test [1] is linear double stranded plasmid pUC18 DNA. Put plainly: DNA crosslinking. As to conditions: for EC50: read-out: CR50 (concentration at which 50% of the duplex is crosslinked). The test is classed as biochemical. Here is the method:
Plasmid DNA pUC 18 was linearised by digestion with Hind III. The linear DNA was then dephosphorylated with BAP and ^32P-radiolabelled on the 5′-end. The DNA was then purified by EtOH precipitation to remove unincorporated γ-^32P ATP and the DNA resuspended in sterile double distilled H2O. To each reaction sample was added ^32P-end labelled DNA and drug at the appropriate concentration. Following incubation at 37° C. for the required time, the reaction was terminated by the addition of Stop Solution Buffer. The DNA-drug adduct was EtOH precipitated and dried by lyophilisation. Each dried DNA sample including an untreated DNA single strand as a control was denatured by resuspending in alkali denaturing buffer. The double stranded control DNA was then dissolved in sucrose loading buffer and the samples loaded and electrophoresed on a 20 cm long 0.8% horizontal agarose gel submerged in 1×TAE buffer at 40 V for 16 h. Gels were then dried and autoradiographed
Compound 20 which consists of both the epoxide and mustard functionality was tested at concentrations between 0.1 and 50 μM at 1 h, 2 h and 3 h intervals. […] Crosslink formation starts at concentrations as low as 0.1 μM and reaches 100% crosslinking at −10 μM. After incubation for an hour the CR50 (concentration at which 50% of the duplex is crosslinked) was determined to be 3.1 μM. The percentage of crosslinked DNA was determined from autoradiograph densitometry.

The GI50 is the concentration that inhibits growth by half. For the compound `C=C(C)[C@H](OC(=O)c1cc(OC)cc2c(C)cccc12)C(=O)NCCN1CCCC(Cl)C1` (stereo partly drawn) [Compound 21], the GI50 in the test on NCl 60 cell panel (Homo sapiens, 60 cell) came out at 5.12 µM; with HCT-116 (Homo sapiens), 12.8 µM; with K562 (Homo sapiens) it was 5.16 µM; in the test with RXF 393 (Homo sapiens), 19.1 µM; with SF-268 (Homo sapiens) it was 11.9 µM; in the test with SF-539 (Homo sapiens), 0.45 µM. The GI50 was found to be 2.76 µM in the test on SW-620 (Homo sapiens); 12.1 µM in the test on TK10 (Homo sapiens, TK-10, RENAL); 0.049 µM in the test with HCT-15; 1.2 µM in the test on SNB-75. For the same compound, the “antitumour activity in the NCl 60 cell line panel (in words)” value in the test with NCl 60 cell panel was “significant cytotoxicity in the low micromolar range”.

Turning to `COc1cc(C(=O)OC(C(=O)NCCN2CCCC(Cl)C2)C2(C)CO2)c2cccc(C)c2c1` (stereo not drawn) [Compound 20], the “concentration at which crosslink formation starts” value in test [1] (1 h incubation) was 0.1 µM. Further, the EC50 is 3.1 µM in test [1] (1 h incubation, 37° C.); 2.7 µM in test [1] (2 h incubation); 2.2 µM in [1] (3 h incubation). Moreover, the concentration for 50% growth inhibition (GI50) in the test on NCl 60 cell panel was found to be 12.3 µM; in the test with HCT-116 it was 100 µM; in the test with K562, 8.33 µM; in the test with RXF 393 it was 17.5 µM; with SF-268, 16.6 µM; in the test on SF-539, 6.27 µM. The results for the GI50 in the test with SW-620 and in the test on TK10 (RENAL) were 5.26 µM and 23.4 µM, respectively. Moreover, the “antitumour activity in the NCl 60 cell line panel (in words)” value in the test on NCl 60 cell panel is given as “low micromolar to high nanomolar activity; also recorded: significant cytotoxicity in the low micromolar range”.

The values are drawn from patent publication US20090233966A1, “Analogues of the Azinomycins as Anti-Tumour Agents and as Prodrugs” (School of Pharmacy, University of London, priority 2005, published 2009).
